Like-named read-outs stand apart in the source and are kept apart here. One block for each molecule: values may come before it.
Experiments:
[1] = test system: dCK-C3S-S74E; test: Enzymatic assay (PK/LDH coupled), dC phosphorylation by dCK in the presence of ATP; format: biochemical, human
How it was run: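 Continuous PK/LDH-coupled readout tracked NADH fluorescence loss at 460 nm while 1 mM ATP and 100 µM dC were turned over by 100 nM (or 50 nM) dCK-C3S-S74E in HEPES pH 7.5 buffer with MgCl2, DTT and KCl. Linear-range slopes normalized to no-compound control; IC50 fitted by nonlinear regression across compound concentrations.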

[2] = test system: CCRF-CEM cell line; test: dCK cellular assay: CCRF-CEM proliferation in the presence of dT and dC; format: cell-based, human; conditions: for activity at 0.078 µM: 78 nM; for activity at 0.156 µM: 156 nM; for activity at 0.312 µM: 312 nM; for activity at 0.625 µM: 625 nM; for activity at 1.25 µM: 1250 nM; for activity at 2.5 µM: 2500 nM; for activity at 5 µM: 5000 nM; for activity at 10 µM: 10000 nM; for activity at 20 µM: 20000 nM; for activity at 40 µM: 40000 nM; for IC50: 72 h, read-out: IC50 cell proliferation (dCK cellular assay); for activity at 0.0195 µM: 19.5 nM; for activity at 0.039 µM: 39 nM; for fold improvement of cellular IC50: versus the preceding compound of the optimization; for activity at 0.00975 µM: 9.75 nM
How it was run: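 Two conditions in T-ALL CCRF-CEM cells: compound only, and compound with thymidine blocking de novo synthesis and deoxycytidine rescuing via dCK. Metabolic dye fluorescence (560/590 nm) gives % proliferation vs DMSO; IC50s, mean ± SD of at least three triplicate runs.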

[3] = test system: dCK-C3S-S74E; test: Thermal shift assay (TSA); conditions: for ΔTm, dCK thermal stabilization (TSA): 5 μM protein, 50 μM compound; for Thermal Shift Assay Mean (ΔTm (º)): Figure 2b; for THERMAL SHIFT ASSAY +Tm (°): mean ± SD
[4] = presence of ATP, [dCK] = 100 nM, read-out: ENZYMATIC ASSAY IC50
[5] = Homo sapiens, CCRF-CEM, dT 200 µM + dC 1 µM, read-out: Cell proliferation of the CCRF-CEM cell line Mean (% prolif)
[6] = Homo sapiens, CCRF-CEM, dT 200 µM + dC 1 µM

dCK-C3S-S74E, sequence (P27707 whole entry S74E, form open): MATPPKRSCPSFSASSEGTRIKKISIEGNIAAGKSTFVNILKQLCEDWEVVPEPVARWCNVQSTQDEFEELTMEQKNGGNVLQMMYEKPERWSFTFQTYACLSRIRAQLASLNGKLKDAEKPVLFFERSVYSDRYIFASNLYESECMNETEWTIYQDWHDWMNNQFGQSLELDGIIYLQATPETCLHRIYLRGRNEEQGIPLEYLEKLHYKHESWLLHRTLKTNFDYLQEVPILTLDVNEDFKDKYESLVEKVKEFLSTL

SMILES: Cc1ccc(-c2ccc(CN3CCN(C)CC3)cc2)cc1Nc1nc(-c2nccc(N)n2)cs1 [OR0274]
Enzymatic activity (ATP) Mean (% activity) ([1]; 0.16 µM): 86.8%
Enzymatic activity (ATP) Mean (% activity) ([1]; 0.31 µM): 81.3%
Enzymatic activity (ATP) Mean (% activity) ([1]; 0.63 µM): 62.9%
Enzymatic activity (ATP) Mean (% activity) ([1]; 1.25 µM): 44.6%
Enzymatic activity (ATP) Mean (% activity) ([1]; 2.5 µM): 27.8%
Enzymatic activity (ATP) Mean (% activity) ([1]; 5 µM): 11.8%
Enzymatic activity (ATP) Mean (% activity) ([1]; 10 µM): 11.9%
Enzymatic activity (ATP) Mean (% activity) ([1]; 20 µM): 7.8%
Enzymatic activity (ATP) Mean (% activity) ([1]; 40 µM): 5.0%
IC50 [1, 4]: 1033 ± 10 nM
activity at 0.078 µM [2, 5]: 103%
activity at 0.156 µM [2, 5]: 94.8%
activity at 0.312 µM [2, 5]: 95.1%
activity at 0.625 µM [2, 5]: 90.1%
activity at 1.25 µM [2, 5]: 75%
activity at 2.5 µM [2, 5]: 55.5%
activity at 5 µM [2, 5]: 31%
activity at 10 µM [2, 5]: 7.8%
activity at 20 µM [2, 5]: -0.0667%
activity at 40 µM [2, 5]: 0.167%
IC50 [2, 6]: 2100 nM
ΔTm, dCK thermal stabilization (TSA) [3]: 16.7 °C
Thermal Shift Assay Mean (ΔTm (º)) [3]: 16.7 º
THERMAL SHIFT ASSAY +Tm (°) [3]: 16.7 ± 0.3 °

SMILES: Cc1ccc(-c2ccc(CCN3CCN(C)CC3)cc2)cc1Nc1nc(-c2nccc(N)n2)cs1 [OR0325]
Enzymatic activity (ATP) Mean (% activity) ([1]; 0.16 µM): 87.3%
Enzymatic activity (ATP) Mean (% activity) ([1]; 0.31 µM): 73.6%
Enzymatic activity (ATP) Mean (% activity) ([1]; 0.63 µM): 56.4%
Enzymatic activity (ATP) Mean (% activity) ([1]; 1.25 µM): 34.0%
Enzymatic activity (ATP) Mean (% activity) ([1]; 2.5 µM): 19.3%
Enzymatic activity (ATP) Mean (% activity) ([1]; 5 µM): 12.3%
Enzymatic activity (ATP) Mean (% activity) ([1]; 10 µM): 11.6%
Enzymatic activity (ATP) Mean (% activity) ([1]; 20 µM): 8.1%
Enzymatic activity (ATP) Mean (% activity) ([1]; 40 µM): 4.4%
IC50 [1, 4]: 826 ± 78 nM
activity at 0.078 µM [2, 5]: 100%
activity at 0.156 µM [2, 5]: 92.4%
activity at 0.312 µM [2, 5]: 88.7%
activity at 0.625 µM [2, 5]: 81.5%
activity at 1.25 µM [2, 5]: 61.9%
activity at 2.5 µM [2, 5]: 40.5%
activity at 5 µM [2, 5]: 11.6%
activity at 10 µM [2, 5]: 0.0667%
activity at 20 µM [2, 5]: -0.0333%
activity at 40 µM [2, 5]: 0.3%
IC50 [2, 6]: 1680 nM
ΔTm, dCK thermal stabilization (TSA) [3]: 17.8 °C
Thermal Shift Assay Mean (ΔTm (º)) [3]: 17.8 º
THERMAL SHIFT ASSAY +Tm (°) [3]: 17.9 ± 0.3 °

SMILES: CCCN(c1nc(-c2nc(N)cc(N)n2)cs1)c1cc(-c2ccc(CCN3CCN(C)CC3)nc2)ccc1C [OR0602]
Enzymatic activity (ATP) Mean (% activity) ([1]; 0.02 µM): 88.7%
Enzymatic activity (ATP) Mean (% activity) ([1]; 0.04 µM): 81.1%
Enzymatic activity (ATP) Mean (% activity) ([1]; 0.08 µM): 60.0%
Enzymatic activity (ATP) Mean (% activity) ([1]; 0.16 µM): 23.6%
Enzymatic activity (ATP) Mean (% activity) ([1]; 0.31 µM): 0.751%
Enzymatic activity (ATP) Mean (% activity) ([1]; 0.63 µM): 4.3%
Enzymatic activity (ATP) Mean (% activity) ([1]; 1.25 µM): 6.6%
Enzymatic activity (ATP) Mean (% activity) ([1]; 2.5 µM): 6.1%
Enzymatic activity (ATP) Mean (% activity) ([1]; 5 µM): 4.8%
IC50 ([1]; ATP, technical limit of the assay, read-out: enzymatic inhibition IC50): 77 nM
activity at 0.004875 µM ([2]; Homo sapiens, CCRF-CEM, 4.875 nM, dT 200 µM + dC 1 µM, read-out: Cell proliferation of the CCRF-CEM cell line Mean (% prolif)): 91.9%
activity at 0.00975 µM [2, 5]: 88%
activity at 0.0195 µM [2, 5]: 81.5%
activity at 0.039 µM [2, 5]: 67.1%
activity at 0.078 µM [2, 5]: 58.6%
activity at 0.156 µM [2, 5]: 47.4%
activity at 0.312 µM [2, 5]: 36.8%
activity at 0.625 µM [2, 5]: 27.7%
activity at 1.25 µM [2, 5]: 20.9%
activity at 2.5 µM [2, 5]: 12.7%
IC50 [2, 6]: 130 nM
fold improvement of cellular IC50 [2]: ~ 2.4 fold
ΔTm, dCK thermal stabilization (TSA) [3]: 19.5 °C
Thermal Shift Assay Mean (ΔTm (º)) [3]: 19.7 º
THERMAL SHIFT ASSAY +Tm (°) [3]: 19.5 ± 0.5 °

The next lines start with results.

Enzymatic activity (ATP) Mean (% activity) ([1]; 0.04 µM): 96.0%
Enzymatic activity (ATP) Mean (% activity) ([1]; 0.08 µM): 95.1%
Enzymatic activity (ATP) Mean (% activity) ([1]; 0.16 µM): 85.5%
Enzymatic activity (ATP) Mean (% activity) ([1]; 0.31 µM): 56.9%
Enzymatic activity (ATP) Mean (% activity) ([1]; 0.63 µM): 22.9%
Enzymatic activity (ATP) Mean (% activity) ([1]; 1.25 µM): 5.3%
Enzymatic activity (ATP) Mean (% activity) ([1]; 2.5 µM): -9.9%
Enzymatic activity (ATP) Mean (% activity) ([1]; 5 µM): -2.1%
Enzymatic activity (ATP) Mean (% activity) ([1]; 10 µM): -7.8%
IC50 [1, 4]: 315 ± 50 nM
IC50 [2, 6]: 505 nM
fold improvement of cellular IC50 [2]: 3 fold
ΔTm, dCK thermal stabilization (TSA) [3]: 18.4 °C
Thermal Shift Assay Mean (ΔTm (º)) [3]: 18.4 º
THERMAL SHIFT ASSAY +Tm (°) [3]: 18.4 ± 0.2 °
SMILES: CCCN(c1nc(-c2nccc(N)n2)cs1)c1cc(-c2ccc(CCN3CCN(C)CC3)cc2)ccc1C [OR0345]
activity at 0.0195 µM [2, 5]: 90.6%
activity at 0.039 µM [2, 5]: 85.8%
activity at 0.078 µM [2, 5]: 82%
activity at 0.156 µM [2, 5]: 72.4%
activity at 0.312 µM [2, 5]: 63.4%
activity at 0.625 µM [2, 5]: 51.4%
activity at 1.25 µM [2, 5]: 37.6%
activity at 2.5 µM [2, 5]: 19.3%
activity at 5 µM [2, 5]: 2.4%
activity at 10 µM [2, 5]: 0.333%

Enzymatic activity (ATP) Mean (% activity) ([1]; 0.04 µM): 92.1%
Enzymatic activity (ATP) Mean (% activity) ([1]; 0.08 µM): 78.6%
Enzymatic activity (ATP) Mean (% activity) ([1]; 0.16 µM): 43.5%
Enzymatic activity (ATP) Mean (% activity) ([1]; 0.31 µM): 11.4%
Enzymatic activity (ATP) Mean (% activity) ([1]; 0.63 µM): 0.0484%
Enzymatic activity (ATP) Mean (% activity) ([1]; 1.25 µM): 1.1%
Enzymatic activity (ATP) Mean (% activity) ([1]; 2.5 µM): -0.9%
Enzymatic activity (ATP) Mean (% activity) ([1]; 5 µM): -8.7%
Enzymatic activity (ATP) Mean (% activity) ([1]; 10 µM): -3.1%
IC50 [1, 4]: 121 ± 21 nM
IC50 [2, 6]: 341 nM
ΔTm, dCK thermal stabilization (TSA) [3]: 20 °C
Thermal Shift Assay Mean (ΔTm (º)) [3]: 20.0 º
THERMAL SHIFT ASSAY +Tm (°) [3]: 20.0 ± 0.6 °
SMILES: CCCN(c1nc(-c2nc(N)cc(N)n2)cs1)c1cc(-c2ccc(CCN3CCN(C)CC3)cc2)ccc1C [OR0600]
activity at 0.00975 µM [2, 5]: 104%
activity at 0.0195 µM [2, 5]: 98.6%
activity at 0.039 µM [2, 5]: 91.6%
activity at 0.078 µM [2, 5]: 85.9%
activity at 0.156 µM [2, 5]: 76.2%
activity at 0.312 µM [2, 5]: 59.2%
activity at 0.625 µM [2, 5]: 40.4%
activity at 1.25 µM [2, 5]: 22.2%
activity at 2.5 µM [2, 5]: 5.5%
activity at 5 µM [2, 5]: 0.133%
